Laboratory results published in patent US20210059955A1, “SYSTEMS AND METHODS FOR DECRYSTALLIZATION OF URIC ACID” (RL Patents, LLC, priority 2019, published 2021).
Where two headings read alike, the source gives them in different places.

Columns and labels:
[1] = test subject A, over the six-month experiment
Experimental: (§1) The method of the experiment includes test subject A submerging an affected joint into a warm bath containing water and sodium bicarbonate. The heat was used to facilitate opening of skin pores to facilitate absorption of the active ingredient or agent. […] Control subject B submerged their affected foot into a pure water bath without any other substance or compound at 38° C. for twice a day for durations of 60 minutes, and for a total of six months. […] A phlebotomist drew a vial of blood from each subject's arm, and the samples were processed by an analyzer, model AU480, by Beckman Coulter.
(§2) Both test subject A and control subject B were diagnosed of hyperuricemia based on personal and clinical assessments, such as, e.g., multiple previous acute gout attacks, presence of swelling and tophi at the affected joint, and measured uric acid serum levels above […]. Both test subject A and control subject B were not on any medication at the time of the experiment, and maintained a low-purine diet, such as, e.g., primarily fruits, vegetables, and bread.

uric acid serum levels = settings: test subject A; for Uric acid serum level: saturated sodium bicarbonate water bath 38° C., twice a day 60 minutes
Experimental: as §1, §2

## O=C([O-])O.[Na+] [sodium bicarbonate]
[1]
  Tophi by visual inspection: no longer visible
Uric acid serum levels; over the six-month experiment
  Overall course of uric acid content: general decline
Uric acid serum levels; August 1 2018
  Uric acid serum level: 6.79 mg/dL
Uric acid serum levels; August 15 2018
  Uric acid serum level: 6.47 mg/dL
Uric acid serum levels; December 1 2018
  Uric acid serum level: 5.41 mg/dL
Uric acid serum levels; December 15 2018
  Uric acid serum level: 5.20 mg/dL
Uric acid serum levels; July 1 2018
  Uric acid serum level: 6.62 mg/dL
Uric acid serum levels; July 15 2018
  Uric acid serum level: 6.58 mg/dL
Uric acid serum levels; June 1 2018
  Uric acid serum level: 6.99 mg/dL
Uric acid serum levels; June 15 2018
  Uric acid serum level: 7.15 mg/dL
Uric acid serum levels; November 1 2018
  Uric acid serum level: 5.37 mg/dL
Uric acid serum levels; November 15 2018
  Uric acid serum level: 5.34 mg/dL
Uric acid serum levels; October 1 2018
  Uric acid serum level: 5.47 mg/dL
Uric acid serum levels; October 15 2018
  Uric acid serum level: 5.40 mg/dL
Uric acid serum levels; September 1 2018
  Uric acid serum level: 5.98 mg/dL
Uric acid serum levels; September 15 2018
  Uric acid serum level: 5.59 mg/dL
